Laboratory results taken from patent US8791148B2, “Substituted benzimidazolone derivatives, medicaments comprising them and their use” (AbbVie Deutschland GmbH & Co. KG, priority 2006, dated 2014).

target: T1, human vasopressin V1b receptor (Homo sapiens, UniProt P47901); experiment: Vasopressin V1b receptor binding assay; settings: membranes from CHO-K1 cells with stably expressed human V1b receptors; displacement of 1.5 nM 3H-AVP; read-out: V1b receptor affinity (affinity constant Ki)
T1 construct: expressed in transfected cells; host or cells: CHO-K1 (cell line hV1b-3H2_CHO), membrane preparation
T1 sequence (P47901 1-424): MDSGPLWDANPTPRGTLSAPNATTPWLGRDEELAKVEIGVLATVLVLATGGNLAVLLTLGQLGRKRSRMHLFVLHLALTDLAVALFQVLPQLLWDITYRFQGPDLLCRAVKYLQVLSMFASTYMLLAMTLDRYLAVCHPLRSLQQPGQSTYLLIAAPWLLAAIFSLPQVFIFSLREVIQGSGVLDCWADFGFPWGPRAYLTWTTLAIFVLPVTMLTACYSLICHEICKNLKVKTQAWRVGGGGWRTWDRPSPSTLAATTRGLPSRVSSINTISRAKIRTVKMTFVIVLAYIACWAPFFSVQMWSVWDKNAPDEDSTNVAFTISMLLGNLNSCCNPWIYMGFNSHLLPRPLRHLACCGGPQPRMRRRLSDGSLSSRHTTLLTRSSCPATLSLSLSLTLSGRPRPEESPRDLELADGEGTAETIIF
Summary of the method: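 Ki values come from nonlinear regression of triplicate scintillation counts after filtration. Test compound (2% DMSO in the mixture) and radioligand were incubated 60 min at room temperature with human V1b membranes in pH 7.4 Tris buffer with 10 mM MgCl2 and 0.1% BSA. Nonspecific binding was set with 1 uM AVP.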

| Ki [nM] | SMILES |
| --- | --- |
| 500 to 10000 | COc1ccc(S(=O)(=O)n2c(=O)n(C(C(=O)N3CCN(C4CCN(C)CC4)CC3)c3ccccc3)c3cc(Cl)c(Cl)cc32)c(OC)c1 (centres unmarked) [Example 69, 5,6-Dichloro-1-(2,4-dimethoxybenzenesulfonyl)-3-{2-[4-(1-methylpiperidin-4-yl)piperazin-1-yl]-2-oxo-1-phenyl-ethyl}-1,3-dihydrobenzimidazol-2-one] |
| 100 to 500 | COc1ccc(S(=O)(=O)n2c(=O)n(C(C(=O)N3CCC[C@H](NC4CCN(C)CC4)C3)c3ccccc3)c3cc(C#N)ccc32)cc1 (stereo partly drawn) [Example 246, 1-(4-Methoxy-benzenesulfonyl)-3-{2-[(S)-3-(1-methyl-piperidin-4-ylamino)-piperidin-1-yl]-2-oxo-1-phenyl-ethyl}-2-oxo-2,3-dihydro-1H-benzoimidazole-5-carbonitrile] |
| 100 to 500 | COc1ccc(S(=O)(=O)n2c(=O)n(C(C(=O)N3CCC[C@H]3c3ncon3)c3ccccc3)c3cc(Cl)ccc32)cc1 (stereo partly drawn) [Example 110, 5-Chloro-1-(4-methoxybenzenesulfonyl)-3-[2-((S)-2-[1,2,4]oxadiazol-3-ylpyrrolidin-1-yl)-2-oxo-1-phenylethyl]-1,3-dihydrobenzimidazol-2-one] |
| 100 to 500 | CN1CCC(N2CCN(C(=O)C(c3ccccc3)n3c(=O)n(S(=O)(=O)c4ccc(C#N)cc4)c4ccc(Cl)cc43)CC2)CC1 (centres unmarked) [Example 68, 4-(5-Chloro-3-{2-[4-(1-methylpiperidin-4-yl)piperazin-1-yl]-2-oxo-1-phenylethyl}-2-oxo-2,3-dihydrobenzimidazol-1-sulfonyl)benzonitrile] |
| 100 to 500 | COc1ccc(S(=O)(=O)n2c(=O)n(C(C(=O)N3CCCC3C(=O)N(C)C)c3ccccc3)c3cc(Cl)ccc32)cc1 (centres unmarked) [Example 93, 1-{2-[6-Chloro-3-(4-methoxybenzenesulfonyl)-2-oxo-2,3-dihydrobenzimidazol-1-yl]-2-phenylacetyl}pyrrolidine-2-dimethylcarboxamide] |
| < 100 | COc1ccc(S(=O)(=O)n2c(=O)n(C(C(=O)N3CC[C@@H](N4CCNCC4)C3)c3ccccc3)c3cc(Cl)ccc32)cc1 (stereo partly drawn) [Example 145, 5-Chloro-1-(4-methoxybenzenesulfonyl)-3-[2-oxo-1-phenyl-2-((R)-3-piperazin-1-yl-pyrrolidin-1-yl)-ethyl]-1,3-dihydrobenzimidazol-2-one] |
| 500 to 10000 | O=C(C(c1ccccc1)n1c(=O)n(S(=O)(=O)c2ccc(Cl)s2)c2ccc(Cl)cc21)N1CCN(c2ccncc2)CC1 (centres unmarked) [Example 7, 5-Chloro-1-(5-chlorothiophene-2-sulfonyl)-3-[2-oxo-1-phenyl-2-(4-pyridin-4-ylpiperazin-1-yl)ethyl]-1,3-dihydrobenzimidazol-2-one] |
| 500 to 10000 | O=C(C(c1ccccc1)n1c(=O)n(S(=O)(=O)c2ccc(OC(F)(F)F)cc2)c2ccc(Cl)cc21)N1CCN(c2ccncc2)CC1 (centres unmarked) [Example 42, 5-Chloro-3-[2-oxo-1-phenyl-2-(4-pyridin-4-ylpiperazin-1-yl)ethyl]-1-(4-trifluoromethoxybenzenesulfonyl)-1,3-dihydrobenzimidazol-2-one] |
| 500 to 10000 | CN1CCC(N2CCN(C(=O)C(c3ccccc3)n3c(=O)n(S(=O)(=O)c4cccc5cccnc45)c4cc(Cl)ccc43)CC2)CC1 (centres unmarked) [Example 71, 5-Chloro-1-{2-[4-(1-methylpiperidin-4-yl)piperazin-1-yl]-2-oxo-1-phenyl-ethyl}-3-(quinoline-8-sulfonyl)-1,3-dihydrobenzimidazol-2-one] |
| 500 to 10000 | COc1ccc(S(=O)(=O)n2c(=O)n(C(C)C(=O)N3CCN(c4ccncc4)CC3)c3cc(Cl)ccc32)cc1 (centres unmarked) [Example 30, 5-Chloro-1-(4-methoxybenzenesulfonyl)-3-[1-methyl-2-oxo-2-(4-pyridin-4-ylpiperazin-1-yl)-ethyl]-1,3-dihydrobenzimidazol-2-one] |
| < 100 | CCCN1CCN(C2CCN(C(=O)C(c3ccccc3OC)n3c(=O)n(S(=O)(=O)c4ccc(OC)cc4)c4ccc(Cl)cc43)C2)CC1 (centres unmarked) [Example 76, 5-Chloro-1-(4-methoxybenzenesulfonyl)-3-{1-(2-methoxyphenyl)-2-oxo-2-[3-(4-propylpiperazin-1-yl)pyrrolidin-1-yl]ethyl}-1,3-dihydrobenzimidazol-2-one] |
| 100 to 500 | CCCN1CCC(N2CCN(C(=O)C(c3ccccc3)n3c(=O)n(S(=O)(=O)c4ccc(OC)cc4)c4ccc(Cl)cc43)CC2)CC1 (centres unmarked) [Example 129, 5-Chloro-1-(4-methoxybenzenesulfonyl)-3-{2-oxo-1-phenyl-2-[4-(1-propylpiperidin-4-yl)piperazin-1-yl]ethyl}-1,3-dihydrobenzimidazol-2-one] |
| < 100 | CCN1CCC(N[C@H]2CCN(C(=O)C(c3ccccc3)n3c(=O)n(S(=O)(=O)c4ccc(OC)cc4)c4ccc(C#N)cc43)C2)CC1 (stereo partly drawn) [Example 209, 3-{2-[(S)-3-(1-Ethylpiperidin-4-ylamino)pyrrolidin-1-yl]-2-oxo-1-phenylethyl}-1-(4-methoxybenzenesulfonyl)-2-oxo-2,3-dihydro-1H-benzimidazole-5-carbonitrile] |
| < 100 | CCCN1CCN(C[C@H]2CCN(C(=O)C(c3ccccc3)n3c(=O)n(S(=O)(=O)c4ccc(OC)cc4)c4ccc(C#N)cc43)C2)CC1 (stereo partly drawn) [Example 235, 1-(4-Methoxy-benzenesulfonyl)-2-oxo-3-{2-oxo-1-phenyl-2-[(R)-3-(4-propylpiperazin-1-ylmethyl)-pyrrolidin-1-yl]-ethyl}-2,3-dihydro-1H-benzoimidazole-5-carbonitrile; compound with trifluoroacetic acid] |
| < 100 | COc1ccc(S(=O)(=O)n2c(=O)n(C(C(=O)N3CC[C@H](N4CCNCC4)C3)c3ccccc3)c3cc(Cl)ccc32)cc1 (stereo partly drawn) [Example 149, 5-Chloro-1-(4-methoxybenzenesulfonyl)-3-[2-oxo-1-phenyl-2-((S)-3-piperazin-1-ylpyrrolidin-1-yl)ethyl]-1,3-dihydrobenzimidazol-2-one] |
| < 100 | CCCN1CCN([C@H]2CCN(C(=O)C(c3ccccc3)n3c(=O)n(S(=O)(=O)c4ccc(OC)cc4)c4ccc(C#N)cc43)C2)CC1 (stereo partly drawn) [Example 161, 1-(4-Methoxybenzenesulfonyl)-2-oxo-3-{2-oxo-1-phenyl-2-[(S)-3-(4-propylpiperazin-1-yl)pyrrolidin-1-yl]ethyl}-2,3-dihydro-1H-benzimidazole-5-carbonitrile] |
| 500 to 10000 | COc1ccc(S(=O)(=O)n2c(=O)n(C(C(=O)N3CCN(C)CC3)c3ccccc3)c3cc(Cl)ccc32)cc1 (centres unmarked) [Example 98, 5-Chloro-1-(4-methoxybenzenesulfonyl)-3-[2-(4-methylpiperazin-1-yl)-2-oxo-1-phenylethyl]-1,3-dihydrobenzimidazol-2-one] |
| 500 to 10000 | COc1ccc(S(=O)(=O)n2c(=O)n(C(C(=O)N3CCN(c4ccncc4)CC3)c3ccccc3)c3ccc(Cl)cc32)c(OC)c1 (centres unmarked) [Example 66, 5-Chloro-3-(2,4-dimethoxybenzenesulfonyl)-1-[2-oxo-1-phenyl-2-(4-pyridin-4-ylpiperazin-1-yl)ethyl]-1,3-dihydrobenzimidazol-2-one] |
| 500 to 10000 | CCCN1CCN([C@H]2CCN(C(=O)C(c3ccccc3)n3c(=O)n(S(=O)(=O)c4ccccc4OC)c4ccc(C#N)cc43)C2)CC1 (stereo partly drawn) [Example 205, 1-(2-Methoxybenzenesulfonyl)-2-oxo-3-{2-oxo-1-phenyl-2-[(S)-3-(4-propylpiperazin-1-yl)pyrrolidin-1-yl]ethyl}-2,3-dihydro-1H-benzimidazole-5-carbonitrile] |
| < 100 | COc1ccc(S(=O)(=O)n2c(=O)n(C(C(=O)N3CC[C@H](CN4CCN(Cc5ccccc5)CC4)C3)c3ccccc3)c3cc(C#N)ccc32)cc1 (stereo partly drawn) [Example 220, 3-{2-[(R)-3-(4-Benzyl-piperazin-1-ylmethyl)-pyrrolidin-1-yl]-2-oxo-1-phenylethyl}-1-(4-methoxy-benzenesulfonyl)-2-oxo-2,3-dihydro-1H-benzoimidazole-5-carbonitrile; compound with trifluoroacetic acid] |
| 100 to 500 | CCCN1CCN([C@H]2CCN(C(=O)C(c3ccccc3)n3c(=O)n(S(=O)(=O)c4ccc(OCCF)cc4)c4ccc(C#N)cc43)C2)CC1 (stereo partly drawn) [Example 232, 1-[4-(2-Fluoro-ethoxy)-benzenesulfonyl]-2-oxo-3-{2-oxo-1-phenyl-2-[(S)-3-(4-propyl-piperazin-1-yl)-pyrrolidin-1-yl]-ethyl}-2,3-dihydro-1H-benzoimidazole-5-carbonitrile] |
| 500 to 10000 | COc1ccc(S(=O)(=O)n2c(=O)n(C(C(=O)N3CC[C@H](NC(=O)OC(C)(C)C)C3)c3ccccc3)c3cc(C#N)ccc32)cc1 (stereo partly drawn) [Example 216, ((S)-1-{2-[6-Cyano-3-(4-methoxy-benzenesulfonyl)-2-oxo-2,3-dihydrobenzoimidazol-1-yl]-2-phenyl-acetyl}-pyrrolidin-3-yl)-carbamic acid tert-butyl ester] |
| 500 to 10000 | COc1ccc(S(=O)(=O)n2c(=O)n(C(C(=O)N3CCN(C4CCN(C)CC4)CC3)c3ccccc3OC)c3cc(Cl)ccc32)cc1 (centres unmarked) [Example 9, 5-Chloro-1-(4-methoxybenzenesulfonyl)-3-{1-(2-methoxyphenyl)-2-[4-(1-methylpiperidin-4-yl)piperazin-1-yl]-2-oxoethyl}-1,3-dihydrobenzimidazol-2-one] |
